In patent US12441693B2, “Targeting STAT sumoylation to enhance immune responses” (THE GEORGE WASHINGTON UNIVERSITY, priority 2018, dated 2025):
Entries after “also recorded” stand apart in the source; their conditions may differ.

How the values were obtained:
[1] = tested on: Interferon Stimulated Genes (ISGs); assay: RNASeq of primary CD4 T cells; format: cell-based, human; settings: IL-2 and HODHBt vs IL-2 and DMSO
Description: RNASeq was performed in primary CD4 T cells treated with HODHBt following the method of Bosque et al., CELL REP. 2017; 18(5):1324-1334, the disclosure of which is hereby incorporated by reference in its entirety.
Total RNA was extracted from cells using Trizol (Invitrogen 15596), polyadenylated RNA was enriched using NEXTflex Poly(A) Beads (Bioo Scientific 512980), and stranded libraries were prepared using a NEXTflex Rapid Directional qRNA-Seq Kit (Bioo Scientific 5130-02D). Sequencing was performed by the Iowa Institute of Human Genetics Genomics Division on an Illumina HiSeq 2500 using 125 base pair (bp) paired-end reads. Raw paired sequences were first trimmed to remove Illumina sequencing adapters and Bioo Scientific randomized 8-mer molecular indexes using Trim Galore! […] For RNA-Seq tracks, reads were then compiled using the genomecov (-split) function of bedtools 2.25.0, normalized by dividing the number of hg19-mapped reads within each sample by the average number of hg19-mapped reads across all nine samples, combined across donors, and visualized on the UCSC Genome Browser. For differential expression analysis, reads were counted over UCSC hg19 genes (26,364 entries) using the featureCounts (-p -B -C -M) function of Subread 1.5.0 (Liao et al., 2014). […]

[2] = tested on: polyclonally activated CD4 T cells (TCM) killed by CD8 T cells
Text: An in vitro model to assess the cytolytic potential of human polyclonally activated CD8 T cells was developed. This model relied on the concept of a mix-lymphocyte reaction (MLR) in which CD8 T cells recognize CD4 T cells from a different donor as foreign and induced their killing (FIG. 11A). In this model, polyclonally activated CD8 T cells were co-cultured with polyclonally activated CD4 T cells from a different donor at an effector:target ratio (E:T) of 1:1. Cell death in both CD4 and CD8 subsets was measured at different time points using a fixable viability dye.
To test this hypothesis, polyclonally activated CD8 T cells were co-cultured with polyclonally activated CD4 T cells from a different donor to resemble a mixed-lymphocyte reaction (MLR) at an effector:target ratio (E:T) 1:1 (FIG. 15A). CD4 T cells were activated in conditions that generate central memory CD4 T cells (TCM) cells. CD4 TCM are more resistant to apoptosis than other subsets of CD4 T cells. Cell death in both CD4 and CD8 subsets was measured at 72 hours using a fixable viability dye. Specifically, polyclonally activated CD4 T cells and CD8 T cells were co-cultured and cell death was measured at 72 hours. […] Using this assay, it was tested whether HODHBt increased the cytolytic capacity of CD8 T cells in two experimental set ups.

CD8 T cells = assay: Expansion of polyclonally activated CD8 T cells with IL-2; format: cell-based, human; settings: IL-2, vs DMSO/untreated
Description: For these tests, human CD4 and CD8 T cells were activated in vitro and expanded with interleukin-2 (IL-2) in the presence of DMSO (control vehicle) or HODHBt. […] Some immunotherapy strategies rely on the in vitro expansion of the own patient CD4 and CD8 T cells specific against a tumoral or a viral antigen.
To address whether SUMOylation controls STAT activation in human CD8 T cells, polyclonally activated CD8 T cells were cultured with IL-2 in the presence or absence of HODHBt and levels of phosphorylated STATs were measured by Western blot. […] Proliferation of CD8 T cells is dependent on the activation and phosphorylation of STAT5.

Granzyme B, TRAIL = assay: Expression of cytotoxic molecules (Gzm B, TRAIL) in CD8 and CD4 T cells; format: cell-based, human
K562 = assay: NK cell killing of K562 cells, E:T 1:1, 4 hours; format: cell-based, human
Description: It was therefore hypothesized that inhibiting STAT SUMOylation may enhance the ability of IL-15 stimulated NK cells to clear the HIV latent reservoir. To test the hypothesis, NK cells were treated with DMSO, IL-15-stimulated, treated with HODHBt or IL-15-stimulated and treated with HODHBt. Cells were then tested in their ability to kill the erythroleukemia cell line K562, which lack MHC-I. In an experiment, the NK cells from two donors were co-cultured with K562 at an E:T ratio of 1:1 for 4 hours (FIG. 19A). NK cells were pretreated with IL-15, HODHBt, or a combination of both.

## O=c1c2ccccc2nnn1O [HODHBt]
[1]
  expression of Interferon Stimulated Genes (RNASeq): induction of several Interferon Stimulated Genes
[2]; CD8 T cells expanded in the presence of HODHBt
  killing capacity of CD8 T cells expanded in the presence of compound: higher killing capacity
[2]; HODHBt added during the MLR reaction, 72 hours
  killing capacity of CD8 T cells over TCM cells: increased the killing capacity of CD8 T cells over TCM cells in a dose dependent manner
[2]; human
  CD8 T cell death in co-culture: no increase in cell death in CD8 T cells in any of the experimental conditions
[2]; human, 72 h
  toxicity on CD8 T cells: no overt toxicity on CD8 T cells
[2]; time course, fixable viability dye
  CD4 T cell death in co-culture with CD8 T cells: detected only in the co-culture treated with HODHBt at 72 hours and 96 hours
CD8 T cells
  expansion of CD8 T cells: increased expansion; also recorded: enhanced the expansion of polyclonally activated CD8 T in 5 human donors
Granzyme B, TRAIL
  levels of Gzm B in CD8 T cells: increased the levels of Gzm B in CD8 T cells
Granzyme B, TRAIL; cultured for three days
  expression of Granzyme B in activated CD8 T cells: increased the levels of expression
  expression of TRAIL in activated CD8 T cells: increased the levels of expression
K562; NK cells expanded with IL-2 and HODHBt
  killing of K562 by NK cells expanded with compound: retained the ability to kill the target cell line K562
K562; NK cells pretreated with combination of IL-15 and HODHBt, E:T 1:1, 4 hours
  killing of K562 by pretreated NK cells: drastic increase in the cytolytic capacity of NK cells
